This assay concerns the target T1, Muscarinic acetylcholine receptor M4 (Rattus norvegicus, UniProt P08485).
T1 sequence (P08485 whole entry): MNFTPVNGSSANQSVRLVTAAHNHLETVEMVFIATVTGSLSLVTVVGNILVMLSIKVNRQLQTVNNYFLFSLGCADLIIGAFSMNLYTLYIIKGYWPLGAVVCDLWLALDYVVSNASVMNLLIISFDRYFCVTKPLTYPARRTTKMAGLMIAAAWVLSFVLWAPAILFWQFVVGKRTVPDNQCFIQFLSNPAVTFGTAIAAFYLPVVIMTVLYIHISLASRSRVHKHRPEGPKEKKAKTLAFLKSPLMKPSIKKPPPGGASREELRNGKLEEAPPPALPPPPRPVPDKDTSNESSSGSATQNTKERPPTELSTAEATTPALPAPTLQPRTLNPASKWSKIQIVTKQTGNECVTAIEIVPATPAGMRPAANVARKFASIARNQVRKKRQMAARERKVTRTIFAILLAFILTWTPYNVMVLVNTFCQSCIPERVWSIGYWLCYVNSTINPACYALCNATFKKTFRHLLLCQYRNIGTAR
Kind of assay: rat M4 radioligand competition binding – biochemical, NMS competition, mechanism study for M4 PAM project, late-stage follow-up (AID 1939). Particulars: inactive by the depositor's call.

For orientation: Ki means the dissociation constant of the complex between target and ligand, obtained from inhibition or displacement.

On to `Cc1cc(C)c2c(N)c(C(=O)NCc3ccc4c(c3)OCO4)sc2n1` [3-amino-4,6-dimethyl-N-piperonyl-thieno[2,3-b]pyridine-2-carboxamide], for which affinity was put at a Ki of 46.8 nM.
